Results taken from the CheMixHub viscosity set.

Experiment: xn = mol fraction of the nth substance listed

O=S(=O)([O-])[O-].[Ni+2] + O
viscosity [mPa·s], 101 kPa
Details | x1 = 0.00332 | x1 = 0.0106 | x1 = 0.01799 | x1 = 0.02625 | x1 = 0.0309 | x1 = 0.04249
298.15 K | 1.04 | 1.32 | 1.82 | 2.66 | 3.13 | 5.21
313.15 K | 0.762 | 0.934 | 1.283 | 1.83 | 2.145 | 3.462

COCCOCCOCCOC + CCCOC(C)=O
viscosity [mPa·s], 101.3 kPa
Details | 298.15 K | 308.15 K | 318.15 K
x1 = 0.005 | 0.558 | 0.492 | 0.442
x1 = 0.0351 | 0.589 | 0.517 | 0.465
x1 = 0.0513 | 0.607 | 0.532 | 0.476
x1 = 0.0859 | 0.643 | 0.562 | 0.503
x1 = 0.1416 | 0.709 | 0.613 | 0.544
x1 = 0.1846 | 0.757 | 0.652 | 0.577
x1 = 0.2654 | 0.857 | 0.734 | 0.647
x1 = 0.3185 | 0.922 | 0.785 | 0.683
x1 = 0.3767 | 1.009 | 0.848 | 0.733
x1 = 0.426 | 1.078 | 0.902 | 0.784
x1 = 0.5278 | 1.224 | 1.019 | 0.862
x1 = 0.5868 | 1.313 | 1.086 | 0.921
x1 = 0.627 | 1.388 | 1.141 | –
x1 = 0.6327 | – | – | 0.964
x1 = 0.69 | 1.486 | 1.22 | 1.025
x1 = 0.7402 | 1.567 | 1.282 | 1.077
x1 = 0.8031 | 1.67 | 1.365 | 1.137
x1 = 0.8451 | 1.744 | 1.427 | 1.177
x1 = 0.8711 | 1.784 | 1.472 | 1.207
x1 = 0.9467 | 1.9 | 1.542 | 1.276
x1 = 0.9582 | 1.91 | 1.552 | 1.285
x1 = 0.979 | 1.939 | 1.513 | 1.302

[Cl-].[NH4+] + O
viscosity [mPa·s]
Details | 298.15 K | 308.15 K | 313.15 K | 323.15 K
101.3 kPa, x1 = 0.00112 | – | 0.7299 | 0.6608 | 0.556
101.3 kPa, x1 = 0.002247 | – | 0.7289 | 0.6597 | 0.5555
101.3 kPa, x1 = 0.004484 | – | 0.7281 | 0.659 | 0.5551
101.3 kPa, x1 = 0.008927 | – | 0.7279 | 0.6586 | 0.5547
101.3 kPa, x1 = 0.0177 | – | 0.7315 | 0.661 | 0.557
101.33 kPa, x1 = 0.000905 | – | 0.7306 | 0.6614 | 0.5565
101.33 kPa, x1 = 0.002718 | – | 0.7295 | 0.6608 | 0.556
101.33 kPa, x1 = 0.00453 | – | 0.7288 | 0.6603 | 0.5556
101.33 kPa, x1 = 0.006344 | – | 0.7285 | 0.6598 | 0.5544
101.33 kPa, x1 = 0.008159 | – | 0.731 | 0.662 | 0.557
101.33 kPa, x1 = 0.1165 | 1.094 | – | – | –

CCCBr + ClC(Cl)(Cl)Cl
viscosity [mPa·s], 101 kPa
Details | 293.15 K | 303.15 K | 313.15 K | 323.15 K
x1 = 0.143 | 0.855 | 0.76 | 0.678 | 0.61
x1 = 0.294 | 0.775 | 0.691 | 0.621 | 0.562
x1 = 0.445 | 0.7 | 0.625 | 0.565 | 0.512
x1 = 0.625 | 0.637 | 0.581 | 0.52 | 0.472

COCCOCCOCCOC + ClC(Cl)Cl
298.15 K, 101 kPa
Details | viscosity [mPa·s]
x1 = 0.0083 | 0.569
x1 = 0.0278 | 0.622
x1 = 0.0552 | 0.702
x1 = 0.0851 | 0.795
x1 = 0.1347 | 0.962
x1 = 0.195 | 1.16
x1 = 0.241 | 1.295
x1 = 0.2903 | 1.425
x1 = 0.3545 | 1.559
x1 = 0.4174 | 1.678
x1 = 0.4686 | 1.717
x1 = 0.5236 | 1.766
x1 = 0.5853 | 1.809
x1 = 0.631 | 1.836
x1 = 0.708 | 1.868
x1 = 0.7445 | 1.893
x1 = 0.8071 | 1.901
x1 = 0.8627 | 1.918
x1 = 0.9174 | 1.934
x2 = 0.0147 | 1.949

Nc1ccccc1 + CCCCCCO
viscosity [mPa·s], 100 kPa
Details | 293.15 K | 303.15 K | 313.15 K | 323.15 K
x1 = 0.0816 | 4.79 | 3.54 | 2.65 | 2.05
x1 = 0.1448 | – | 3.327 | 2.396 | –
x1 = 0.1533 | 4.4 | 3.29 | 2.48 | 1.92
x1 = 0.2422 | 4.1 | 3.09 | 2.33 | 1.82
x1 = 0.2758 | – | 2.857 | 1.969 | –
x1 = 0.3514 | 3.81 | 2.87 | 2.21 | 1.73
x1 = 0.4176 | – | 2.453 | 1.627 | –
x1 = 0.4449 | 3.64 | 2.74 | 2.12 | 1.66
x1 = 0.5246 | – | 2.213 | 1.457 | –
x1 = 0.5571 | 3.55 | 2.61 | 2.04 | 1.61
x1 = 0.6037 | – | 2.119 | 1.397 | –
x1 = 0.6483 | 3.52 | 2.59 | 2.03 | 1.61
x1 = 0.7131 | – | 2.101 | 1.432 | –
x1 = 0.7361 | 3.55 | 2.61 | 2.05 | 1.63
x1 = 0.8283 | – | 2.283 | 1.639 | –
x1 = 0.8542 | 3.73 | 2.72 | 2.16 | 1.71
x1 = 0.932 | – | 2.648 | 1.979 | –
x1 = 0.9356 | 4.03 | 2.93 | 2.32 | 1.84
